Experimental data reported in patent publication US8492582B2, “N-acyl anthranilic acid derivative or salt thereof” (Toyama Chemical Co., Ltd., priority 2009, dated 2013).
Where a name gives a salt, the structure may show the parent alone. Read-outs that look alike come from different tables or passages of the source.

Experiments:
[1] = tested on: bleomycin-induced lung fibrosis (lung collagen amount); assay: Mouse bleomycin-induced lung fibrosis; assay type: in vivo, mice C57BL/6N; conditions: po, 672 h, read-out: lung collagen amount low compared with that of the control group
Procedure: The test was conducted using 8- to 10.5-week-old male mice C57BL/6N (Charles River Laboratories Japan, Inc.). Bleomycin (Nippon Kayaku Co., Ltd.) was dissolved in physiological saline in a concentration of 1.0 or 1.5 mg/mL, and 2 μL/g thereof was intranasally administered to each mouse to evoke lung fibrosis. A test compound was dissolved or suspended in a 10% aqueous solution of polyoxyethylene castor oil (trade name: Cremophor EL) or in water and orally administered in an amount of 10 mg/kg twice a day from the 14th to the 28th day from the evocation. In a control group, a 10% aqueous solution of polyoxyethylene castor oil or water was administered in the same manner. The lung was extracted from each mouse on the 28th day from the evocation, and collagen was quantitatively measured. The extracted lung was homogenized in a 0.5 mol/L aqueous solution of acetic acid containing a protease inhibitor cocktail (Complete, EDTA-free, Roche Diagnostics) in an amount of one tablet/50 mL, and water-soluble collagen was extracted in the presence of 10 mg/mL pepsin (Sigma) overnight. The amount of collagen was measured using a kit (Sircol Soluble Collagen assay kit, Biocolor).
The inhibition rate was determined by the following expression: Inhibition rate (%)=[1−(lung collagen amount in test compound administration group)/(lung collagen amount in control group)]×100

[2] = tested on: type I collagen α1 chain mRNA in WI-38 cells; assay: Type I collagen α1 chain mRNA expression inhibition test; assay type: cell-based; conditions: Homo sapiens, read-out: Inhibition rate (%) at 10 μmol/L
Procedure: Human embryonic lung fibroblast cell line WI-38 cells were suspended in a Dulbecco's modified Eagle's medium containing 10% fetal calf serum, and 7.5×10^4 cells were inoculated on a 12-well plate and cultured for 3 days, or 1.5×10^5 cells were inoculated and cultured for 2 days. After the growth of the cells to a subconfluent state, the culture medium was changed to a Dulbecco's modified Eagle's medium containing 0.4% fetal calf serum and 50 μg/mL ascorbic acid, and the cells were further cultured for 24 hours. Then, a test compound was added thereto, and, one hour later, TGF-β1 was added at a final concentration of 1 ng/mL. Twenty-four hours after the addition, the total RNA was extracted from the cells using an RNA extraction kit (SV Total RNA Isolation System, Promega), and cDNA was synthesized using a reverse transcriptase (ReverTra Ace, TOYOBO). The expression level of the type I collagen al chain mRNA was analyzed with a real-time PCR instrument (ABI PRISM 7700 Sequence Detection System, Applied Biosystems) by a real-time PCR method using a premix reagent of real-time PCR (SYBR Premix Ex Taq or SYBR Premix Ex Taq II (Perfect Real Time), TaKaRa). A PCR reaction was conducted with diluted cDNA as a template, using primers specific for a type I collagen α1 chain gene or a GAPDH gene as an internal standard, and the reaction product was measured. The PCR reaction was conducted by incubation at 95° C. for 10 seconds and 45 cycles of denaturation at 95° C. for 5 seconds and annealing/extension at 60° C. for 30 seconds. The expression level of the type I collagen α1 chain mRNA was corrected with GAPDH and was expressed as a relative value when the expression level obtained in the absence of the test compound was defined as 100%.

SD-line male rats = assay: Repeated administration toxicity test in rat (oral administration, two weeks); assay type: in vivo; conditions: 1000 mg/kg, 5 rats per group, 80a and 1b as sodium salts
Procedure: As test compounds, the compounds of Examples 80a, 122a, 139a, 1b, 16b, and 19b were used. Note that the compounds of Examples 80a and 1b were used in the forms of sodium salts.
Each test compound was suspended in a 0.5% methylcellulose solution or distilled water to prepare a 100 mg/mL suspension. The suspension of the test compound was orally administered (10 mL/kg, test compound: 1000 mg/kg) to SD-line male rats (6-week-old, 5 rats for each group).

CYP2C9 = biological target: T1, CYP2C9 (Homo sapiens, UniProt P11712); assay: Hepatic drug-metabolizing enzyme inhibitory activity in humans (CYP2C9); assay type: in vitro ADME; conditions: pooled human liver microsome, tolbutamide 200 μmol/L, 37° C., 30 minutes; 80a as free base; read-out: IC50 (CYP2C9, tolbutamide metabolite)
T1 construct: Pooled human liver microsome was used, and tolbutamide was used as a substrate; from tissue; host or cells: pooled human liver microsomes
T1 sequence (P11712 whole entry): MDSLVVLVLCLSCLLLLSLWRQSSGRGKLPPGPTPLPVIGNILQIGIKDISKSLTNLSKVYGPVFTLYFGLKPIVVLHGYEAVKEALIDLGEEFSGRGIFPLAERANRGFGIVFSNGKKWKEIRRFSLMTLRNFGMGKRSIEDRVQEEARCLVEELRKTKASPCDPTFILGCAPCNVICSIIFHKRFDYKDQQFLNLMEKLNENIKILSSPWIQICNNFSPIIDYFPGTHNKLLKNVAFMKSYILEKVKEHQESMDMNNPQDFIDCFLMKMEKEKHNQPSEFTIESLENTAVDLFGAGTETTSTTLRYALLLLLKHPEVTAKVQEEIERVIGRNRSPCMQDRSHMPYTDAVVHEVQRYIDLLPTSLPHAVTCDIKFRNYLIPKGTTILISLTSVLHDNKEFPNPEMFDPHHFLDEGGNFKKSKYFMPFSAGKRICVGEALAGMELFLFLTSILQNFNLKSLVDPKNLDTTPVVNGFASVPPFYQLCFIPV
Procedure: As test compounds, the compounds of Examples 80a, 83a, 108a, 117a, 123a, 128a, 139a, 142a, and 143a were used. Note that the compound of Example 80a was used in the form of free base.
Pooled human liver microsome was used, and tolbutamide was used as a substrate. The reaction was performed in a phosphate buffer (100 mmol/L, pH 7.4), and the final concentrations in the reaction system were adjusted to 0.5 mg/mL of human liver microsome protein, 200 μmol/L of the substrate, 1.55 mmol/L of oxidized nicotinamide adenine dinucleotide phosphate (NADP+), 3.3 mmol/L of glucose-6-phosphate, 3.3 mmol/L of magnesium chloride, and 0.4 Units/mL of glucose-6-phosphate dehydrogenase (G6PDH). The final concentration of each compound in the reaction solution was adjusted to 0.08 to 50 μg/mL. These reaction solutions were each subjected to reaction at 37° C. for 30 minutes. The reaction was terminated with an equal amount of acetonitrile. After centrifugation, the concentration of a tolbutamide metabolite in the supernatant was quantitatively measured by LC-MS/MS. The inhibitory activity was determined as IC50. As a positive control, sulfaphenazole was used.

[3] = side effect, clinical, Non Patent Document 3; cited from earlier work
[4] = orally 10 mg/kg twice a day, 14th to 28th day, lung on 28th day, 23a, 1b, 7c as sodium salts, 122a, 143a as hydrochloric acid salts
[5] = 10 μmol/L test compound, WI-38 cells, TGF-β1 1 ng/mL, 24 hours, Table 4b
[6] = 10 μmol/L test compound, WI-38 cells, TGF-β1 1 ng/mL, 24 hours, Table 4a

IC50 (CYP2C9) | SMILES | inhibition in vivo at 10 mg/kg [1, 4] | survival on the 14th day from the administration (SD-line male rats) | inhibition at 10 µM [2, 6] | other results
– | O=C(Nc1cc(-c2ccccc2)ccc1C(=O)O)c1cncc(-c2ccccc2)c1 [1b, 4-phenyl-2-(5-phenylpyridine-3-carboxamido)benzoic acid] | ≥ 30% | all rats survived | – | inhibition at 10 µM [2, 5]: 72%
– | CCNc1ccccc1-c1ccc(C(=O)[O-])c(NC(=O)c2cncc(-c3ccccc3)c2)c1.[Na+] [16b, sodium 4-(2-(ethylamino)phenyl)-2-(5-phenylpyridine-3-carboxamido)benzoate] | ≥ 30% | all rats survived | – | inhibition at 10 µM [2, 5]: 84%
– | O=C(Nc1cc(-c2ccco2)ccc1C(=O)[O-])c1cncc(-c2ccccc2)c1.[Na+] [19b, sodium 4-(furan-2-yl)-2-(5-phenylpyridine-3-carboxamido)benzoate] | ≥ 30% | all rats survived | – | inhibition at 10 µM [2, 5]: 90%
– | O=C(Nc1cc(-c2ccoc2)ccc1C(=O)O)c1cncc(-c2ccccc2)c1 [57b, Sodium 4-(furan-3-yl)-2-(5-phenylpyridine-3-carboxamido)benzoate] | – | – | – | inhibition in vivo at 10 mg/kg [1]: ≥ 30%; inhibition at 10 µM ([2]; WI-38, 24 h): 84%
– | O=C(Nc1cc(-c2ccccc2)ccc1C(=O)O)c1cc(-c2cccnc2)ccc1O [Example 23a, 2-(2-hydroxy-5-(pyridin-3-yl)benzamido)-4-phenylbenzoic acid] | ≥ 30% | – | 91% | –
> 110 µM | O=C(Nc1cc(-c2ccccc2)ccc1C(=O)O)c1cc(N2CCOCC2)ccc1O [Example 83a, 2-(2-Hydroxy-5-(morpholin-4-yl)benzamido)-4-phenylbenzoic acid hydrochloride] | ≥ 30% | – | 88% | –
> 109 µM | CN1CCN(CCc2ccc(O)c(C(=O)Nc3cc(-c4ccccc4)ccc3C(=O)O)c2)CC1 [Example 117a, 2-(2-hydroxy-5-(2-(4-methylpiperazin-1-yl)ethyl)benzamido)-4-phenylbenzoic acid dimethanesulfonate] | – | – | 90% | –
– | CN1CCN(Cc2ccc(O)c(C(=O)Nc3cc(-c4ccccc4)ccc3C(=O)O)c2)CC1 [Example 122a, 2-(2-hydroxy-5-((4-methylpiperazin-1-yl)methyl)benzamido)-4-phenylbenzoic acid dimethanesulfonate] | ≥ 30% | all rats survived | 88% | –
> 76.7 µM | CCN1CCN(Cc2ccc(O)c(C(=O)Nc3cc(-c4ccccc4)ccc3C(=O)O)c2)CC1 [Example 123a, 2-(5-((4-Ethylpiperazin-1-yl)methyl)-2-hydroxybenzamido)-4-phenylbenzoic acid dimethanesulfonate] | – | – | – | –
> 106 µM | CN(C)C1CCN(Cc2ccc(O)c(C(=O)Nc3cc(-c4ccccc4)ccc3C(=O)O)c2)CC1 [Example 128a, 2-(5-((4-(Dimethylamino)piperidin-1-yl)methyl)-2-hydroxybenzamido)-4-phenylbenzoic acid dimethanesulfonate] | – | – | – | –
> 105 µM | CN1CCN(CCOc2ccc(O)c(C(=O)Nc3cc(-c4ccccc4)ccc3C(=O)O)c2)CC1 [Example 142a, 2-(2-hydroxy-5-(2-(4-methylpiperazin-1-yl)ethoxy)benzamido)-4-phenylbenzoic acid dimethanesulfonate] | – | – | 90% | –
> 102 µM | CCN1CCN(CCOc2ccc(O)c(C(=O)Nc3cc(-c4ccccc4)ccc3C(=O)O)c2)CC1 [Example 143a, 2-(5-(2-(4-ethylpiperazin-1-yl)ethoxy)-2-hydroxybenzamido)-4-phenylbenzoic acid dimethanesulfonate] | ≥ 30% | – | 89% | –
– | Cc1ccccc1-c1ccc(C(=O)O)c(NC(=O)c2cc(N3CCCCC3)ccc2O)c1 [Example 148a, 2-(2-hydroxy-5-(piperidin-1-yl)benzamido)-4-(2-methylphenyl)benzoic acid] | – | – | 93% | –
– | Cc1cccc(-c2ccc(C(=O)O)c(NC(=O)c3cc(N4CCCCC4)ccc3O)c2)c1 [Example 149a, 2-(2-Hydroxy-5-(piperidin-1-yl)benzamido)-4-(3-methylphenyl)benzoic acid] | – | – | 97% | –
– | Cc1ccc(-c2ccc(C(=O)O)c(NC(=O)c3cc(N4CCCCC4)ccc3O)c2)cc1 [Example 150a, 2-(2-Hydroxy-5-(piperidin-1-yl)benzamido)-4-(4-methylphenyl)benzoic acid] | – | – | 93% | –
– | Cc1ccc(=O)n(-c2ccccc2)c1 [pirfenidone, Pirfenidone] | – | – | – | photosensitivity in subjects [3]: 87.9%

SMILES | IC50 (CYP2C9) | inhibition in vivo at 10 mg/kg [1, 4] | survival on the 14th day from the administration (SD-line male rats) | inhibition at 10 µM [2, 6] | other results
O=C(Nc1cc(-c2ccccc2)ccc1C(=O)O)c1cc(N2CCCCC2)ccc1O [Example 80a, 2-(2-hydroxy-5-(piperidin-1-yl)benzamido)-4-phenylbenzoic acid hydrochloride] | > 120 µM | – | all rats survived | – | inhibition in vivo at 10 mg/kg [1]: ≥ 30%; inhibition at 10 µM ([2]; WI-38, 24 h): 95%
CN1CCC(Oc2ccc(O)c(C(=O)Nc3cc(-c4ccccc4)ccc3C(=O)O)c2)CC1 [Example 108a, 2-(2-hydroxy-5-((1-methylpiperidin-4-yl)oxy)benzamido)-4-phenylbenzoic acid hydrochloride] | > 112 µM | – | – | 94% | inhibition in vivo at 10 mg/kg [1]: ≥ 30%
O=C(Nc1cc(-c2ccccc2)ccc1C(=O)O)c1cc(OCCN2CCOCC2)ccc1O [Example 139a, 2-(2-hydroxy-5-(2-(morpholin-4-yl)ethoxy)benzamido)-4-phenylbenzoic acid hydrochloride] | > 108 µM | – | all rats survived | – | inhibition at 10 µM ([2]; WI-38, 24 h): 85%
